Key:
HeLa [1] = test: Cytotoxicity against human HeLa cells assessed as inhibition of cell growth incubated for 48 hrs by MTT spectrophotometric assay; type: functional, cell-based
SGC-7901 = test: Cytotoxicity against human SGC-7901 cells assessed as inhibition of cell growth incubated for 48 hrs by MTT spectrophotometric assay; type: functional, cell-based; settings: SGC-7901, 48 h
A549 [2] = test: Cytotoxicity against human A549 cells assessed as inhibition of cell growth incubated for 48 hrs by MTT spectrophotometric assay; type: functional, cell-based; settings: A549, 48 h
Calf thymus DNA [3] = test: Binding affinity to calf thymus DNA assessed as binding constant by UV-Vis spectroscopic analysis; type: nucleic-acid assay; settings: Bos taurus
Jurkat = test: Antiproliferative activity against human Jurkat cells assessed as inhibition of cell proliferation incubated for 72 hrs by MTT assay; type: functional, cell-based
A549 [4] = test: Antiproliferative activity against human A549 cells assessed as inhibition of cell proliferation incubated for 72 hrs by MTT assay; type: functional, cell-based; settings: A549, 72 h
MCF7 [5] = test: Antiproliferative activity against human MCF7 cells assessed as inhibition of cell proliferation incubated for 72 hrs by MTT assay; type: functional, cell-based; settings: MCF7, 72 h
HeLa [6] = test: Cytotoxicity against human HeLa cells assessed as cell growth inhibition by MTT assay; type: functional, cell-based
A549 [7] = test: Cytotoxicity against human A549 cells assessed as cell growth inhibition by MTT assay; type: functional, cell-based
HL-60 = test: Cytotoxicity against human HL-60 cells assessed as cell growth inhibition by MTT assay; type: functional, cell-based
MCF7 [8] = test: Cytotoxicity against human MCF7 cells assessed as cell growth inhibition by MTT assay; type: functional, cell-based
HCT-8 = test: Cytotoxicity against human HCT-8 cells assessed as cell growth inhibition by MTT assay; type: functional, cell-based
A-375 = test: Cytotoxicity against human A-375 cells assessed as cell growth inhibition by MTT assay; type: functional, cell-based
P388 = test: Cytotoxicity against mouse P388 cells assessed as cell growth inhibition by MTT assay; type: functional, cell-based
Calf thymus DNA [9] = test: Binding affinity to calf thymus DNA assessed as apparent binding constant by fluorescence based EtBr-displacement assay; type: nucleic-acid assay; settings: Bos taurus
Calf thymus DNA [10] = test: Binding affinity to calf thymus DNA assessed as DNA intercalation by measuring change in melting temperature by thermal denaturation assay; type: nucleic-acid assay; settings: Bos taurus
A2780 = test: Cytotoxicity against human A2780 cells assessed as inhibition of cell growth incubated for 72 hrs by SRB assay; type: functional, cell-based; settings: A2780, 72 h
Staphylococcus aureus = test: Antibacterial activity against Staphylococcus aureus MTCC 96 assessed as inhibition of bacterial growth by agar well diffusion assay; type: functional
[11] = tested on: Staphylococcus epidermidis; test: Antibacterial activity against Staphylococcus epidermidis MTCC 435 assessed as inhibition of bacterial growth by agar well diffusion assay; type: functional
Escherichia coli = test: Antibacterial activity against Escherichia coli MTCC 443 assessed as inhibition of bacterial growth by agar well diffusion assay; type: functional
Pseudomonas aeruginosa = test: Antibacterial activity against Pseudomonas aeruginosa MTCC 741 assessed as inhibition of bacterial growth by agar well diffusion assay; type: functional
K562 = test: Cytotoxicity against human K562 cells assessed as cell growth inhibition incubated for 48 hrs by sulforhodamine B reagent assay; type: functional, cell-based; settings: K562, 48 h
EKVX = test: Cytotoxicity against human EKVX cells assessed as cell growth inhibition incubated for 48 hrs by sulforhodamine B reagent assay; type: functional, cell-based
NCI-H322M = test: Cytotoxicity against human NCI-H322M cells assessed as cell growth inhibition incubated for 48 hrs by sulforhodamine B reagent assay; type: functional, cell-based
HCT-116 = test: Cytotoxicity against human HCT-116 cells assessed as cell growth inhibition incubated for 48 hrs by sulforhodamine B reagent assay; type: functional, cell-based; settings: HCT-116, 48 h
KM12 = test: Cytotoxicity against human KM12 cells assessed as cell growth inhibition incubated for 48 hrs by sulforhodamine B reagent assay; type: functional, cell-based; settings: KM12, 48 h
SW-620 = test: Cytotoxicity against human SW620 cells assessed as cell growth inhibition incubated for 48 hrs by sulforhodamine B reagent assay; type: functional, cell-based; settings: SW-620, 48 h
SF-539 = test: Cytotoxicity against human SF-539 cells assessed as cell growth inhibition incubated for 48 hrs by sulforhodamine B reagent assay; type: functional, cell-based; settings: SF-539, 48 h
SNB-75 = test: Cytotoxicity against human SNB-75 cells assessed as cell growth inhibition incubated for 48 hrs by sulforhodamine B reagent assay; type: functional, cell-based; settings: SNB-75, 48 h
U-251 = test: Cytotoxicity against human U-251 cells assessed as cell growth inhibition incubated for 48 hrs by sulforhodamine B reagent assay; type: functional, cell-based; settings: U-251, 48 h
Malme-3M = test: Cytotoxicity against human Malme-3M cells assessed as cell growth inhibition incubated for 48 hrs by sulforhodamine B reagent assay; type: functional, cell-based
SK-MEL-28 = test: Cytotoxicity against human SK-MEL-28 cells assessed as cell growth inhibition incubated for 48 hrs by sulforhodamine B reagent assay; type: functional, cell-based; settings: SK-MEL-28, 48 h
SK-MEL-5 = test: Cytotoxicity against human SK-MEL-5 cells assessed as cell growth inhibition incubated for 48 hrs by sulforhodamine B reagent assay; type: functional, cell-based; settings: SK-MEL-5, 48 h
OVCAR-4 = test: Cytotoxicity against human OVCAR-4 cells assessed as cell growth inhibition incubated for 48 hrs by sulforhodamine B reagent assay; type: functional, cell-based; settings: OVCAR-4, 48 h
786-0 = test: Cytotoxicity against human 786-0 cells assessed as cell growth inhibition incubated for 48 hrs by sulforhodamine B reagent assay; type: functional, cell-based; settings: 786-0, 48 h
RXF 393 = test: Cytotoxicity against human RXF 393 cells assessed as cell growth inhibition incubated for 48 hrs by sulforhodamine B reagent assay; type: functional, cell-based; settings: RXF 393, 48 h
DU-145 = test: Cytotoxicity against human DU-145 cells assessed as cell growth inhibition incubated for 48 hrs by sulforhodamine B reagent assay; type: functional, cell-based; settings: DU-145, 48 h
MCF7 [12] = test: Cytotoxicity against human MCF7 cells assessed as cell growth inhibition incubated for 48 hrs by sulforhodamine B reagent assay; type: functional, cell-based; settings: MCF7, 48 h
MDA-MB-231 = test: Cytotoxicity against human MDA-MB-231 cells assessed as cell growth inhibition incubated for 48 hrs by sulforhodamine B reagent assay; type: functional, cell-based; settings: MDA-MB-231, 48 h
Hs-578T = test: Cytotoxicity against human Hs-578T cells assessed as cell growth inhibition incubated for 48 hrs by sulforhodamine B reagent assay; type: functional, cell-based
T47D = test: Cytotoxicity against human T47D cells assessed as cell growth inhibition incubated for 48 hrs by sulforhodamine B reagent assay; type: functional, cell-based
BT-549 = test: Cytotoxicity against human BT-549 cells assessed as cell growth inhibition incubated for 48 hrs by sulforhodamine B reagent assay; type: functional, cell-based; settings: BT-549, 48 h
Salmon testes DNA = test: Binding affinity to salmon Testis DNA assessed as equilibrium binding constant by steady-state fluorescence spectroscopic analysis; settings: Salmo salar
Homo sapiens [13] = species on record: Homo sapiens; test: Binding affinity to double stranded [poly(dA-dT)2] DNA (unknown origin) assessed as equilibrium binding constant by steady-state fluorescence spectroscopic analysis
Homo sapiens [14] = species on record: Homo sapiens; test: Binding affinity to double stranded [poly(dG-dC)2] DNA (unknown origin) assessed as equilibrium binding constant by steady-state fluorescence spectroscopic analysis

CN(C)CCN1C(=O)c2cccc3c(N4CCN(CCO)CC4)ccc(c23)C1=O
< 7 µM: IC50 (HeLa [1]) | IC50 (SGC-7901) | IC50 (A549 [2])
0.47 10^5/M: Kb (Calf thymus DNA [3])

O=C1c2cccc3cccc(c23)C(=O)N1CC/N=C/c1ccccn1
5.58 µM: IC50 (Jurkat)
5.67 µM: IC50 (A549 [4]) | IC50 (MCF7 [5])

CN(C)CCN1C(=O)c2cccc3c(N4CCN(CCCO)CC4)ccc(c23)C1=O
0.47 10^5/M: Kb (Calf thymus DNA [3])
< 7 µM: IC50 (HeLa [1]) | IC50 (SGC-7901) | IC50 (A549 [2])

COc1ccc2c(CC(=O)NCCN3C(=O)c4cccc5c(N(C)C)ccc(c45)C3=O)c(C)n(C(=O)c3ccc(Cl)cc3)c2c1
13.9 µM: IC50 (HeLa [6]) | IC50 (A549 [7]) | IC50 (HL-60) | IC50 (MCF7 [8]) | IC50 (HCT-8) | IC50 (A-375) | IC50 (P388)

O=C1c2cccc3cccc(c23)C(=O)N1CCCCCCNCc1ccccn1
5.67 µM: IC50 (A549 [4]) | IC50 (MCF7 [5])
5.58 µM: IC50 (Jurkat)
3.1 10^6/M: Kapp (Calf thymus DNA [9])

COc1cccc2cc(-c3csc(N4C(=O)c5ccc6c7c(ccc(c57)C4=O)C(=O)N(c4nc(-c5cc7cccc(OC)c7oc5=O)cs4)C6=O)n3)c(=O)oc12
0.1 °C: ΔTm (Calf thymus DNA [10])
18.8 µg/mL: MIC (Staphylococcus aureus) | MIC [11] | MIC (Escherichia coli) | MIC (Pseudomonas aeruginosa)
< 100 nM: IC50 (A2780)

O=C1c2cccc3cccc(c23)C(=O)N1CCCCOc1ccc(-c2nc3ccc(N4CCOCC4)cc3[nH]2)cc1
110 nM: IC50 (K562) | IC50 (EKVX) | IC50 (NCI-H322M) | IC50 (HCT-116) | IC50 (KM12) | IC50 (SW-620) | IC50 (SF-539) | IC50 (SNB-75) | IC50 (U-251) | IC50 (Malme-3M) | IC50 (SK-MEL-28) | IC50 (SK-MEL-5) | IC50 (OVCAR-4) | IC50 (786-0) | IC50 (RXF 393) | IC50 (DU-145) | IC50 (MCF7 [12]) | IC50 (MDA-MB-231) | IC50 (Hs-578T) | IC50 (T47D) | IC50 (BT-549)

C[n+]1ccc(CCN2C(=O)c3cccc4c(N)ccc(c34)C2=O)cc1
1.38 10^5/M: Kb (Salmon testes DNA)
0.82 10^5/M: Kb (Homo sapiens [14])
5.15 10^5/M: Kb (Homo sapiens [13])

From ChEMBL document CHEMBL5244223, “l,8-Naphthalimide based DNA intercalators and anticancer agents. A systematic review from 2007 to 2017” (Eur J Med Chem, 2018)
